Source: US20250154198A1, “PEPTIDE INHIBITORS OF INTERLEUKIN-23 RECEPTOR” (Zealand Pharma A/S, priority 2021, published 2025)
Read-outs that look alike come from different tables or passages of the source. Where a SMILES comes first, the peptide text is derived from it.

Assays:
human IL-23R = target: T1, human IL-23R (Homo sapiens, UniProt Q5VWK5); test: Binding assay (NanoBRET displacement of fluorophore-labelled reference compound) for estimating binding affinity to human IL-23R
T1 construct: UniProtKB—Q5VWK5, amino acids 22-629; secretion signal of the plasmid (Promega N1371); expressed in transfected cells
T1 sequence (Q5VWK5 22-629): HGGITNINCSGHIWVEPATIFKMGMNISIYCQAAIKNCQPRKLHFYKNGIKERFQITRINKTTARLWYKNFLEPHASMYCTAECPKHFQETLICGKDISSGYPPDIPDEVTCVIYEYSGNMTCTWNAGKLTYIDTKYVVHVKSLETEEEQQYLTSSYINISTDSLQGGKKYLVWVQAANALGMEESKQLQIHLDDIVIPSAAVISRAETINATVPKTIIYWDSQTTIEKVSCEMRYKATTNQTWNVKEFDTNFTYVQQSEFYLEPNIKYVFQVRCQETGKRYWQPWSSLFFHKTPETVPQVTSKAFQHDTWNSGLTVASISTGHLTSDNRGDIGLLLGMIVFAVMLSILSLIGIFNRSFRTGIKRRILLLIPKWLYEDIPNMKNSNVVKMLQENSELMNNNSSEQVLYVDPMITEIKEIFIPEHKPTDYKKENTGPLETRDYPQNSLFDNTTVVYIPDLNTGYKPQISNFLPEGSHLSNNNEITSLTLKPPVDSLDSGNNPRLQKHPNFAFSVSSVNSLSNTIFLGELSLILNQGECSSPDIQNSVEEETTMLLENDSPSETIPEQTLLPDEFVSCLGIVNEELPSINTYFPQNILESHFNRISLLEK

[1] = target: IL-23 mediated phospho-STAT3 formation in DB cells (Homo sapiens, UniProt Q5VWK5); test: Functional inhibition of IL-23 mediated STAT3 signalling (phospho-STAT3 Tyr705 MSD) in DB cells; type: cell-based; details: DB cells, read-out: IC50 (pSTAT3)
From the text: Functional Inhibition of IL-23 Mediated STAT3 Signalling by Compounds
Upon binding of IL-23, the IL-23R forms a heterodimer signalling complex together with IL-12R β1, which through the JAK2/STAT3 pathway promotes phosphorylation of STAT3 to form phospho-STAT3.
The assay was used to quantify the functional antagonism of a compound and to rank order the inhibitor compounds according to their potency. For compounds tested in this assay, the response was normalized relative to control values to calculate the IC50 and maximal inhibitory response from a concentration response curve of the compound in presence of a fixed concentration of human IL-23.
The assay procedure was as follows. […] Following preincubation of the DB cells with inhibitor for 15 min in a cell incubator (37° C., 5% CO2), 20 μL of the prepared 3× the EC80 of hIL-23 solution was added to each well and incubated for 90 min in a cell incubator (37° C., 5% CO2). For some wells buffer only or IL-23 only corresponding to the EC80 was added to obtain readouts needed for normalization. To terminate the assay, the plate was spun at 1000 G for 5 min to pellet cells, the supernatant removed using an 8-channel manual pipette, and then added 50 μL/well Complete Lysis Buffer from the MSD STAT3 kit (Cat #K150SVD, Mesoscale) to the cell pellet. To completely lyse cells to release phospho-STAT3 for detection, the plate was shaken for 10 min at room temperature (500 rpm) sealed with aluminum foil and placed at −80° C. for a minimum of 15 min. Detection of the phospho-STAT3 level in the cell lysate from the individual wells was determined using the MSD STAT3 kit (Cat #K150SVD, Mesoscale) and read on a Meso QuickPlex SQ 120 plate reader (Mesoscale).
For data analysis raw data counts from the Meso QuickPlex SQ 120 plate reader were normalized relative to the response by the EC80 of hIL-23 alone (no compound added) and the buffer level. Compound potency (IC50) and maximal inhibitory response (% inhibition) were estimated by computer-aided curve fitting using a 4-parameter logistic (4PL) non-linear model.

[2] = Table 3-1, read-out: Ki hIL-23R
[3] = Table 2-7b, read-out: Ki IL-23R

Ki (human IL-23R; [2]) [nM]	IC50 ([1]; Table 3-1) [nM]	Ki (human IL-23R; [3]) [nM]	IC50 ([1]; Table 2-7b) [nM]	SMILES	further results
> 1000	> 1000			CC(=O)N[C@@H](CC(=O)O)C(=O)N[C@H]1CCC(=O)NCCCC[C@@H](C(=O)N[C@@H](CCCNC(=N)N)C(N)=O)NC(=O)[C@H](CC(C)C)NC(=O)[C@H](C)NC(=O)[C@H](Cc2c[nH]c3ccccc23)NC(=O)[C@@H]2CSCC(=O)CSC[C@H](NC(=O)[C@H](CO)NC1=O)C(=O)N[C@@H](Cc1c[nH]c3ccccc13)C(=O)N[C@@H](CCC(N)=O)C(=O)N2 [Compound 15, [Ac]-DE(1c)SC(2a)WQC(2a)WALK(1c)R-[NH2]] (HELM PEPTIDE1{[ac].D.E.S.C.W.Q.C.W.A.L.K.R.[am]}|CHEM1{[O=C(C[*:1])C[*:2]]}$PEPTIDE1,PEPTIDE1,3:R3-12:R3|PEPTIDE1,CHEM1,5:R3-1:R1|PEPTIDE1,CHEM1,8:R3-1:R2$$$V2.0)	
		24.6	79.2	CC(=O)N[C@@H](CC(=O)O)C(=O)N[C@H]1CCCCNC(=O)CC[C@@H](C(=O)N[C@@H](CCCNC(=N)N)C(N)=O)NC(=O)[C@H](CC(C)C)NC(=O)[C@H](Cc2ccc3ccccc3c2)NC(=O)[C@H](Cc2c[nH]c3ccccc23)NC(=O)[C@@H]2CSCc3ccccc3CSC[C@H](NC(=O)[C@H](CO)NC1=O)C(=O)N[C@@H](Cc1c[nH]c3ccccc13)C(=O)N[C@@H](CCC(N)=O)C(=O)N2 [Compound 20, [Ac]-DK(1c)SC(2d)WQC(2d)W[2-Nal]LE(1c)R-[NH2]] (HELM PEPTIDE1{[ac].D.K.S.C.W.Q.C.W.[O=C([C@H](Cc1ccc2ccccc2c1)N[*:1])[*:2]].L.E.R.[am]}|CHEM1{[c1ccc(C[*:2])c(C[*:1])c1]}$PEPTIDE1,PEPTIDE1,3:R3-12:R3|PEPTIDE1,CHEM1,5:R3-1:R1|PEPTIDE1,CHEM1,8:R3-1:R2$$$V2.0)	
	> 1000	563	> 1000	CC(=O)N[C@@H](CC(=O)O)C(=O)N[C@H]1CCCCNC(=O)CC[C@@H](C(=O)N[C@@H](CCCNC(=N)N)C(N)=O)NC(=O)[C@H](CC(C)C)NC(=O)[C@H](Cc2ccc3ccccc3c2)NC(=O)[C@H](Cc2c[nH]c3ccccc23)NC(=O)[C@@H]2CSCc3ccc(cc3)CSC[C@H](NC(=O)[C@H](CO)NC1=O)C(=O)N[C@@H](Cc1c[nH]c3ccccc13)C(=O)N[C@@H](CCC(N)=O)C(=O)N2 [Compound 22, [Ac]-DK(1c)SC(2f)WQC(2f)W[2-Nal]LE(1c)R-[NH2]] (HELM PEPTIDE1{[ac].D.K.S.C.W.Q.C.W.[O=C([C@H](Cc1ccc2ccccc2c1)N[*:1])[*:2]].L.E.R.[am]}|CHEM1{[c1cc(C[*:2])ccc1C[*:1]]}$PEPTIDE1,PEPTIDE1,3:R3-12:R3|PEPTIDE1,CHEM1,5:R3-1:R1|PEPTIDE1,CHEM1,8:R3-1:R2$$$V2.0)	

The remaining lines, values behind:

SMILES	Ki (human IL-23R; [2]) [nM]	IC50 ([1]; Table 3-1) [nM]	Ki (human IL-23R; [3]) [nM]	IC50 ([1]; Table 2-7b) [nM]	further results
CC(=O)N[C@H]1CCC(=O)NCCCC[C@@H](C(=O)N[C@@H](CCCNC(=N)N)C(N)=O)NC(=O)[C@H](CC(C)C)NC(=O)[C@H](Cc2c[nH]c3ccccc23)NC(=O)[C@H](Cc2c[nH]c3ccccc23)NC(=O)[C@@H]2CSCC(=O)CSC[C@H](NC(=O)[C@H](CO)NC1=O)C(=O)N[C@@H](Cc1c[nH]c3ccccc13)C(=O)N[C@@H](CCC(N)=O)C(=O)N2 [Compound 10, [Ac]-E(1c)SC(2a)WQC(2a)WWLK(1c)R-[NH2]] (HELM PEPTIDE1{[ac].E.S.C.W.Q.C.W.W.L.K.R.[am]}|CHEM1{[O=C(C[*:1])C[*:2]]}$PEPTIDE1,PEPTIDE1,2:R3-11:R3|PEPTIDE1,CHEM1,4:R3-1:R1|PEPTIDE1,CHEM1,7:R3-1:R2$$$V2.0)					Ki (human IL-23R; Table 2-4b, read-out: Ki IL-23R): 101 nM; IC50 ([1]; Table 2-4b): 617 nM
CC(=O)N[C@@H](CC(=O)O)C(=O)N[C@H]1CCC(=O)NCCCC[C@@H](C(=O)N[C@@H](CCCNC(=N)N)C(N)=O)NC(=O)[C@H](CC(C)C)NC(=O)[C@H](Cc2c[nH]c3ccccc23)NC(=O)[C@H](Cc2c[nH]c3ccccc23)NC(=O)[C@@H]2CSCC(=O)CSC[C@H](NC(=O)[C@H](CO)NC1=O)C(=O)N[C@@H](C)C(=O)N[C@@H](CCC(N)=O)C(=O)N2 [Compound 13, [Ac]-DE(1c)SC(2a)AQC(2a)WWLK(1c)R-[NH2]] (HELM PEPTIDE1{[ac].D.E.S.C.A.Q.C.W.W.L.K.R.[am]}|CHEM1{[O=C(C[*:1])C[*:2]]}$PEPTIDE1,PEPTIDE1,3:R3-12:R3|PEPTIDE1,CHEM1,5:R3-1:R1|PEPTIDE1,CHEM1,8:R3-1:R2$$$V2.0)	> 1000	> 1000			
CC(=O)N[C@@H](CC(=O)O)C(=O)N[C@H]1CCC(=O)NCCCC[C@@H](C(=O)N[C@@H](CCCNC(=N)N)C(N)=O)NC(=O)[C@H](CC(C)C)NC(=O)[C@H](Cc2c[nH]c3ccccc23)NC(=O)[C@H](C)NC(=O)[C@@H]2CSCC(=O)CSC[C@H](NC(=O)[C@H](CO)NC1=O)C(=O)N[C@@H](Cc1c[nH]c3ccccc13)C(=O)N[C@@H](CCC(N)=O)C(=O)N2 [Compound 14, [Ac]-DE(1c)SC(2a)WQC(2a)AWLK(1c)R-[NH2]] (HELM PEPTIDE1{[ac].D.E.S.C.W.Q.C.A.W.L.K.R.[am]}|CHEM1{[O=C(C[*:1])C[*:2]]}$PEPTIDE1,PEPTIDE1,3:R3-12:R3|PEPTIDE1,CHEM1,5:R3-1:R1|PEPTIDE1,CHEM1,8:R3-1:R2$$$V2.0)	> 1000	> 1000			
CC(=O)N[C@@H](CC(=O)O)C(=O)N[C@H]1CCC(=O)NCCCC[C@@H](C(=O)N[C@@H](CCCNC(=N)N)C(N)=O)NC(=O)[C@H](CC(C)C)NC(=O)[C@H](Cc2c[nH]c3ccccc23)NC(=O)[C@H](Cc2c[nH]c3ccccc23)NC(=O)[C@@H]2CSCC(=O)CSC[C@H](NC(=O)[C@H](CO)NC1=O)C(=O)N[C@@H](Cc1c[nH]c3c(C)cccc13)C(=O)N[C@@H](CCC(N)=O)C(=O)N2 [Compound 16, [Ac]-DE(1c)SC(2a)[7-Me-Trp]QC(2a)WWLK(1c)R-[NH2]] (HELM PEPTIDE1{[ac].D.E.S.C.[Cc1cccc2c(C[C@H](N[*:1])C(=O)[*:2])c[nH]c12].Q.C.W.W.L.K.R.[am]}|CHEM1{[O=C(C[*:1])C[*:2]]}$PEPTIDE1,PEPTIDE1,3:R3-12:R3|PEPTIDE1,CHEM1,5:R3-1:R1|PEPTIDE1,CHEM1,8:R3-1:R2$$$V2.0)					Ki (human IL-23R; Table 2-5b, read-out: Ki IL-23R): 95.4 nM; IC50 ([1]; Table 2-5b): 461 nM
CC(=O)N[C@@H](CC(=O)O)C(=O)N[C@H]1CCCCNC(=O)CC[C@@H](C(=O)N[C@@H](CCCNC(=N)N)C(N)=O)NC(=O)[C@H](CC(C)C)NC(=O)[C@H](Cc2ccc3ccccc3c2)NC(=O)[C@H](Cc2c[nH]c3ccccc23)NC(=O)[C@@H]2CSCC(=O)CSC[C@H](NC(=O)[C@H](CO)NC1=O)C(=O)N[C@@H](Cc1c[nH]c3ccccc13)C(=O)N[C@@H](CCC(N)=O)C(=O)N2 [Compound 19, [Ac]-DK(1c)SC(2a)WQC(2a)W[2-Nal]LE(1c)R-[NH2]] (HELM PEPTIDE1{[ac].D.K.S.C.W.Q.C.W.[O=C([C@H](Cc1ccc2ccccc2c1)N[*:1])[*:2]].L.E.R.[am]}|CHEM1{[O=C(C[*:1])C[*:2]]}$PEPTIDE1,PEPTIDE1,3:R3-12:R3|PEPTIDE1,CHEM1,5:R3-1:R1|PEPTIDE1,CHEM1,8:R3-1:R2$$$V2.0)					Ki (human IL-23R; Table 2-6b, read-out: Ki IL-23R): 6.32 nM; IC50 ([1]; Table 2-6b): 32.3 nM
CC(=O)N[C@@H](CC(=O)O)C(=O)N[C@H]1CCCCNC(=O)CC[C@@H](C(=O)N[C@@H](CCCNC(=N)N)C(N)=O)NC(=O)[C@H](CC(C)C)NC(=O)[C@H](Cc2ccc3ccccc3c2)NC(=O)[C@H](Cc2c[nH]c3ccccc23)NC(=O)[C@@H]2CSCc3cccc(c3)CSC[C@H](NC(=O)[C@H](CO)NC1=O)C(=O)N[C@@H](Cc1c[nH]c3ccccc13)C(=O)N[C@@H](CCC(N)=O)C(=O)N2 [Compound 21, [Ac]-DK(1c)SC(2e)WQC(2e)W[2-Nal]LE(1c)R-[NH2]] (HELM PEPTIDE1{[ac].D.K.S.C.W.Q.C.W.[O=C([C@H](Cc1ccc2ccccc2c1)N[*:1])[*:2]].L.E.R.[am]}|CHEM1{[c1cc(C[*:1])cc(C[*:2])c1]}$PEPTIDE1,PEPTIDE1,3:R3-12:R3|PEPTIDE1,CHEM1,5:R3-1:R1|PEPTIDE1,CHEM1,8:R3-1:R2$$$V2.0)		> 1000	634	> 1000	
